Our source for the IC50 values is patent publication US11077115B2, “Rorgamma modulators and uses thereof” (Genfit, priority 2017, dated 2021).

In test [1] the target is T1, human RORγt (Homo sapiens, UniProt P51449).
T1 sequence (P51449 1-497 isoform P51449-2): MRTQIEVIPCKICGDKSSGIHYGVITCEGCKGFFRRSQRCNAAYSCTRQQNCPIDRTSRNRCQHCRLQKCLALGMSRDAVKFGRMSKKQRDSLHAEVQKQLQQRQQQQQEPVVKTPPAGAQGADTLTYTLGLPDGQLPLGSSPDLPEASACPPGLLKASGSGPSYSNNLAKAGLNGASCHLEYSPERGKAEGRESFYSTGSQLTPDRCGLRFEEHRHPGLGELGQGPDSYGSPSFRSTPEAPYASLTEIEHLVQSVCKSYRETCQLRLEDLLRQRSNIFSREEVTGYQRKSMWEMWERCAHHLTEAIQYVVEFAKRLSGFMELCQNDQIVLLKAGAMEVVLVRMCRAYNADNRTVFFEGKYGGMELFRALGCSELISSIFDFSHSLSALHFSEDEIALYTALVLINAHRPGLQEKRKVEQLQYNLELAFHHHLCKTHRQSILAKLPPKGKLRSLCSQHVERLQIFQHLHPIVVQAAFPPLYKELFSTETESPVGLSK
In words: IL-17 secretion from EL4 murine lymphoma overexpressing human RORγt. The class given is cell-based. Further details: V5-His (named only through the vector pcDNA3.1D/V5-His-TOPO); expressed in transfected cells. The note with it: IL-17 secretion inhibition in human RORγt-transfected EL4 Tcells, PMA/ionomycin stimulation. As for the experimental part: Murine EL-4 lymphoma cell line overexpressing human RORγt was used in this functional assay to assess compound ability to inhibit IL-17 cytokine secretion.
EL-4 cells are maintained in a standard culture medium RPMI supplemented with 10% fetal calf serum, 1% sodium pyruvate, 1% essential amino acids and 1% antibiotics at 37° C. in a humidified atmosphere of 5% CO2 and 95% air. Culture medium was changed every 2 days. EL4 cells were transfected with a plasmid encoding hRORγt (sequence identical to published sequence NM 001001523). […] Briefly, 1 μg of DNA/1 million cells was served to transfect EL-4 cells. Cell/DNA suspension was transferred into certified cuvette and the electroporation of RORγt plasmid was carried out using appropriate Nucleofector® program.
Cells were seeded in 96 well plates at a density of 150000 cells/well then treated with compounds of this invention at indicated concentrations and incubated for 24 hours at 37° C. in a humidified atmosphere of 5% CO2 and 95% air. EL-4 cells were pretreated with test compounds (RORγ modulators) and stimulated with PMA (10 ng/mL) and ionomycin (1 μM final concentration) in the presence of test compound concentrations for additional 24 h at 37° C. in a humidified atmosphere of 5% CO2 and 95% air. Subsequently, supernatants were collected (after centrifugation at 300 g for 10 minutes) to determine the concentrations of IL-17 by HTRF (CisBio, France) or ELISA (R&D Systems Europe) according to the manufacturer's protocols.

In test [2] the target is T1, human RORγt. In words: RORE Luciferase/RORγt transactivation assay (IL-17 promoter luciferase reporter in COS-7 cells). It counts as cell-based. Further details: V5-His (named only through the vector pcDNA3.1D/V5-His-TOPO); expressed in transfected cells; host or cells: COS-7 (monkey kidney). The following applies: RORγt activity inhibition, luciferase activity in transfected COS-7 cells, 20 h. The procedure, abridged: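 COS-7 cells co-transfected with human RORγt and luciferase reporter driven by 4.3 kb IL-17 promoter with CNS enhancer, seeded in serum-free, phenol red-free DMEM. Compounds added at 0.3% DMSO final; luciferase read by Steady-Glo luminescence. IC50 (μM) and Emax (%) reported.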

For test [3], the target named is T2, RORγt ligand-binding domain (RORγt-LBD) (Homo sapiens, UniProt P51449).
T2 construct: 20 nM recombinantly expressed RORγ-LBD fused to GST
T2 sequence (P51449 269-508 limits assumed): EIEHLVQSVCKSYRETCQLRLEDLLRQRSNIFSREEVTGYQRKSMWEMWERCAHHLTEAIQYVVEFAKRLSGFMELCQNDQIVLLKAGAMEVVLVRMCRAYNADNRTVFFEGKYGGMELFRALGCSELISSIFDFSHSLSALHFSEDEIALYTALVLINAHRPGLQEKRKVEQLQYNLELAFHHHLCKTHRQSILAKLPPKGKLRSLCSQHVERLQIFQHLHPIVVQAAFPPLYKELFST
In words: Time-resolved FRET (TR-FRET) RORγt coactivator assay (RIP140 peptide displacement). It counts as biochemical. The following applies: ligand-dependent coactivator-RORγt binding. The procedure, abridged:
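GST-tagged RORγt-LBD (20 nM) with 30 nM biotinylated RIP140 peptide, 1 nM streptavidin-terbium and 20 nM d2-anti-GST in CHAPS buffer with DTT, EDTA, BSA; 1% DMSO. Compounds 0.3 nM–30 μM, 2 h dark, room temperature. Coactivator displacement lowers TR-FRET signal; IC50 (μM) and Emax (%) derived.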

As for `Cc1ccc(C(NC(=O)Cc2ccc(N3CCS(=O)(=O)CC3)c(C)c2)c2ccc(C)o2)c(N2CCCCC2)c1` (stereo not drawn) [Cpd. 12, 2-[4-(1,1-dioxo-1-thiomorpholin-4-yl)-3-methylphenyl]-N-{[4-methyl-2-(piperidin-1-yl)phenyl](5-methylfuran-2-yl)methyl}acetamide], the half-inhibitory concentration (IC50) at human RORγt [1] is under 1000 nM; against human RORγt [2] it was under 100 nM; in test [3], under 1000 nM.
In the case of `Cc1ccc(C(NC(=O)C2(c3cnc(N4CCS(=O)(=O)CC4)nc3)CC2)c2ccc(Cl)cc2C)o1` (stereo not drawn) [Cpd. 53, N-[(4-chloro-2-methylphenyl)(5-methylfuran-2-yl)methyl]-1-[2-(1,1-dioxo-1-thiomorpholin-4-yl)pyrimidin-5-yl]cyclopropane-1-carboxamide], the IC50 against human RORγt [1] is 100 to 1000 nM; on human RORγt [2], under 100 nM; in test [3], under 1000 nM.
In the case of `Cc1ccc(C(NC(=O)C2(c3ccc(N4CCS(=O)(=O)CC4)cc3)CC2)c2ccccc2N2CCCCC2)o1` (stereo not drawn) [Cpd. 60, 1-[4-(1,1-dioxo-1-thiomorpholin-4-yl)phenyl]-N-[(5-methylfuran-2-yl)[2-(piperidin-1-yl)phenyl]methyl]cyclopropane-1-carboxamide], the IC50 on human RORγt [1] was under 1000 nM; against human RORγt [2], 100 to 1000 nM; in test [3], under 1000 nM.
Consider `Cc1ccc(C(NC(=O)Cc2ccc(N3CCS(=O)(=O)CC3)cc2)c2ccccc2)c(N2CC3CC3C2)c1` (stereo not drawn) [Cpd. 22, N-[(2-{3-azabicyclo[3.1.0]hexan-3-yl}-4-methylphenyl)(phenyl)methyl]-2-[4-(1,1-dioxo-1-thiomorpholin-4-yl)phenyl]acetamide], for which the results for the IC50 (on human RORγt [1]; on human RORγt [2]; in test [3]) were 100 to 1000 nM, under 100 nM and under 1000 nM, respectively.
The corresponding values for `Cc1ccc(C(NC(=O)Cc2ccc(N3CCOCC3)nc2)c2ccc(C)o2)c(N2CCCCC2)c1` (stereo not drawn) [Cpd. 25, N-{[4-methyl-2-(piperidin-1-yl)phenyl](5-methylfuran-2-yl)methyl}-2-[6-(morpholin-4-yl)pyridin-3-yl]acetamide] are 100 to 1000 nM, 100 to 1000 nM and under 1000 nM.
The corresponding values for `COc1ccc(C(NC(=O)C2(c3ccc(N4CCS(=O)(=O)CC4)cc3)CC2)c2ccc(C)o2)c(N2CCCCCC2)c1` (stereo not drawn) [Cpd. 46, N-{[2-(azepan-1-yl)-4-methoxyphenyl](5-methylfuran-2-yl)methyl}-1-[4-(1,1-dioxo-1-thiomorpholin-4-yl)phenyl]cyclopropane-1-carboxamide] are under 1000 nM, under 100 nM and 100 to 1000 nM.
For `Cc1ccc(C(NC(=O)Cc2ccc(N3CCS(=O)(=O)CC3)c(C)c2)c2ccc(C)o2)c(C(F)(F)F)c1` (stereo not drawn) [Cpd. 10, 2-[4-(1,1-dioxo-1-thiomorpholin-4-yl)-3-methylphenyl]-N-{[4-methyl-2-(trifluoromethyl)phenyl](5-methylfuran-2-yl)methyl}acetamide] the same measures were 100 to 1000 nM, 100 to 1000 nM and 100 to 1000 nM.
Turning to `Cc1ccc(C(NC(=O)Cc2ccc(N3CCS(=O)(=O)CC3)cc2)c2ccc(C)o2)c(N2CCCCC2)c1` (stereo not drawn) [Cpd. 6, 2-[4-(1,1-dioxo-1-thiomorpholin-4-yl)phenyl]-N-{[4-methyl-2-(piperidin-1-yl)phenyl](5-methylfuran-2-yl)methyl}acetamide], the IC50 on human RORγt [1] is under 1000 nM; against human RORγt [2], under 100 nM; in test [3] it was under 1000 nM.
For `COc1ccc(C(NC(=O)Cc2ccc(N3CCS(=O)(=O)CC3)c(C)c2)c2ccc(C)o2)c(N2CC3CC3C2)c1` (stereo not drawn) [Cpd. 16, N-[(2-{3-azabicyclo[3.1.0]hexan-3-yl}-4-methoxyphenyl)(5-methylfuran-2-yl)methyl]-2-[4-(1,1-dioxo-1-thiomorpholin-4-yl)-3-methylphenyl]acetamide], the IC50 is under 1000 nM against human RORγt [1], 100 to 1000 nM against human RORγt [2] and under 1000 nM in test [3].
For the molecule `Cc1ccc(C(NC(=O)Cc2ccc(N3CCS(=O)(=O)CC3)c(C)c2)c2ccccc2)c(N2CC3CC3C2)c1` (stereo not drawn) [Cpd. 23, N-[(2-{3-azabicyclo[3.1.0]hexan-3-yl}-4-methylphenyl)(phenyl)methyl]-2-[4-(1,1-dioxo-1-thiomorpholin-4-yl)-3-methylphenyl]acetamide], the IC50 was 100 to 1000 nM against human RORγt [1], under 100 nM on human RORγt [2] and 100 to 1000 nM in test [3].
`Cc1ccc(C(NC(=O)C2(c3cnc(N4CCS(=O)(=O)CC4)nc3)CC2)c2ccc(C)o2)c(C)c1` (stereo not drawn) [Cpd. 48, N-[(2,4-dimethylphenyl)(5-methylfuran-2-yl)methyl]-1-[2-(1,1-dioxo-1-thiomorpholin-4-yl)pyrimidin-5-yl]cyclopropane-1-carboxamide]: the IC50 was under 1000 nM against human RORγt [1], under 100 nM against human RORγt [2] and under 1000 nM in test [3].
As for `Cc1ccc(C(NC(=O)C2(c3ccc(N4CCS(=O)(=O)CC4)cc3)CC2)c2ccc(C)o2)c(C)c1` (stereo not drawn) [Cpd. 31, N-[(2,4-dimethylphenyl)(5-methylfuran-2-yl)methyl]-1-[4-(1,1-dioxo-1-thiomorpholin-4-yl)phenyl]cyclopropane-1-carboxamide], the IC50 against human RORγt [1] is under 1000 nM; on human RORγt [2], under 100 nM; in test [3], under 1000 nM.
`COc1ccc(C(NC(=O)Cc2ccc(N3CCS(=O)(=O)CC3)c(C)c2)c2ccc(C)o2)c(N(C)C)c1` (stereo not drawn) [Cpd. 15, N-{[2-(dimethylamino)-4-methoxyphenyl](5-methylfuran-2-yl)methyl}-2-[4-(1,1-dioxo-1-thiomorpholin-4-yl)-3-methylphenyl]acetamide]: the IC50 against human RORγt [1] is under 1000 nM; on human RORγt [2], 100 to 1000 nM; in test [3], under 1000 nM.
In the case of `Cc1ccc(C(NC(=O)Cc2ccc(N3CCS(=O)(=O)CC3)cc2)c2ccccc2)c(Br)c1` (stereo not drawn) [Cpd. 9, N-[(2-bromo-4-methylphenyl)(phenyl)methyl]-2-[4-(1,1-dioxo-1-thiomorpholin-4-yl)phenyl]acetamide], the IC50 at human RORγt [1] is 100 to 1000 nM; against human RORγt [2] it was 100 to 1000 nM; in test [3], under 1000 nM.
As for `Cc1ccc(C(NC(=O)C2(c3ccc(N4CCS(=O)(=O)CC4)cc3)CC2)c2ccc(Cl)o2)c(C)c1` (stereo not drawn) [Cpd. 66, N-[(5-chlorofuran-2-yl)(2,4-dimethylphenyl)methyl]-1-[4-(1,1-dioxo-1-thiomorpholin-4-yl)phenyl]cyclopropane-1-carboxamide], the IC50 is under 1000 nM on human RORγt [1], under 100 nM against human RORγt [2] and under 1000 nM in test [3].
In the case of `COc1ccc(C(NC(=O)Cc2ccc(N3CCS(=O)(=O)CC3)c(C)c2)c2ccc(C)o2)c(N2CCC(C)CC2)c1` (stereo not drawn) [Cpd. 13, 2-[4-(1,1-dioxo-1-thiomorpholin-4-yl)-3-methylphenyl]-N-{[4-methoxy-2-(4-methylpiperidin-1-yl)phenyl](5-methylfuran-2-yl)methyl}acetamide], the IC50 (on human RORγt [1]; against human RORγt [2]; in test [3]) was 100 to 1000 nM in each case.
